# ChEMBL document CHEMBL4304811, “Development of a Water-Soluble Indolylmaleimide Derivative IM-93 Showing Dual Inhibition of Ferroptosis and NETosis” (ACS Med Chem Lett, 2019)
# The source made the active and inactive calls. No cut-off for these calls is given here.
# Assays:
# [1] = target: G protein-coupled receptor kinase 4 (Homo sapiens) (UniProt P32298); assay: Binding affinity to wild-type human full length GRK4 (M1 to C578 residues) expressed in bacterial expression system assessed as residual binding level at 10 uM by Kinomescan method relative to control
# [2] = system: Epidermal growth factor receptor (Homo sapiens), P00533 [L858R,T790M]; assay: Binding affinity to human partial length EGFR L858R/T790M double mutant (R669 to V1011 residues) expressed in mammalian expression system assessed as residual binding level at 10 uM by Kinomescan method relative to control
# [3] = target: Vascular endothelial growth factor receptor 1 (Homo sapiens) (UniProt P17948); assay: Binding affinity to wild-type human partial length FLT1 (R781 to F1239 residues) expressed in bacterial expression system assessed as residual binding level at 10 uM by Kinomescan method relative to control
# [4] = target: Serine/threonine-protein kinase PAK 2 (Homo sapiens) (UniProt Q13177); assay: Binding affinity to wild-type human partial length PAK2 (P151 to R525 residues) expressed in bacterial expression system assessed as residual binding level at 10 uM by Kinomescan method relative to control
# [5] = target: Serine/threonine-protein kinase 24 (Homo sapiens) (UniProt Q9Y6E0); assay: Binding affinity to wild-type human partial length MST3 (A30 to S311 residues) expressed in bacterial expression system assessed as residual binding level at 10 uM by Kinomescan method relative to control
# [6] = target: Receptor-interacting serine/threonine-protein kinase 2 (Homo sapiens) (UniProt O43353); assay: Binding affinity to wild-type human partial length RIPK2 (M1 to K310 residues) expressed in bacterial expression system assessed as residual binding level at 10 uM by Kinomescan method relative to control
# Receptor-interacting serine/threonine-protein kinase 2 (Homo sapiens), sequence (O43353 whole entry, the tested form may be a part): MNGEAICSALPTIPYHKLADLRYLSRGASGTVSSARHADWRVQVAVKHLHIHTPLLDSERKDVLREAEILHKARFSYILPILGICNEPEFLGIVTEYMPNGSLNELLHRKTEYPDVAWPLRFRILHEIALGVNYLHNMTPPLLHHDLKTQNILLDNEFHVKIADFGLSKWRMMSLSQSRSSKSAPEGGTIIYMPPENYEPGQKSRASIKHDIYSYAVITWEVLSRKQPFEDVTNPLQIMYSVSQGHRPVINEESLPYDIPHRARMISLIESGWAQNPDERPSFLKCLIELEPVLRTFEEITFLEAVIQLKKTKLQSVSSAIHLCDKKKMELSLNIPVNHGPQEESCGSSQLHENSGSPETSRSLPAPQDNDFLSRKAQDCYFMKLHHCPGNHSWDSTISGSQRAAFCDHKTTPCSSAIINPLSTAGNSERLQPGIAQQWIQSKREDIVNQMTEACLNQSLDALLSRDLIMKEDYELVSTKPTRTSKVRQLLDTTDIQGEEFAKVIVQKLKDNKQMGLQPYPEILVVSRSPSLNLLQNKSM
# [7] = target: Mitogen-activated protein kinase 14 (Homo sapiens) (UniProt Q16539); assay: Binding affinity to wild-type human full length p38-alpha (M1 to S360 residues) expressed in bacterial expression system assessed as residual binding level at 10 uM by Kinomescan method relative to control
# [8] = target: Serine/threonine-protein kinase WNK3 (Homo sapiens) (UniProt Q9BYP7); assay: Binding affinity to wild-type human partial length WNK3 (M1 to D434 residues) expressed in mammalian expression system assessed as residual binding level at 10 uM by Kinomescan method relative to control
# [9] = target: SNF-related serine/threonine-protein kinase (Homo sapiens) (UniProt Q9NRH2); assay: Binding affinity to wild-type human partial length SNRK (M1 to E339 residues) expressed in mammalian expression system assessed as residual binding level at 10 uM by Kinomescan method relative to control
# Jurkat = assay: Cytoprotection against fas ligand/cycloheximide/Z-VAD-fmk-induced necroptosis in human Jurkat cells at 4 to 25 uM measured after 20 hrs by WST-8 assay; assay type: functional, cell-based
# Neutrophil = assay: Inhibition of PMA-induced NETosis in human neutrophils assessed as inhibition of ROS production at 25 uM pretreated for 25 mins followed by PMA stimulation and measured after 20 mins by DCFH-DA based flow cytometry; assay type: functional, cell-based
# [10] = system: Epidermal growth factor receptor (Homo sapiens), P00533 [G719C]; assay: Binding affinity to human partial length EGFR G719C mutant (R669 to V1011 residues) expressed in bacterial expression system assessed as residual binding level at 10 uM by Kinomescan method relative to control
# [11] = target: Eukaryotic translation initiation factor 2-alpha kinase 1 (Homo sapiens) (UniProt Q9BQI3); assay: Binding affinity to wild-type human partial length EIF2AK1 (Q147 to E603 residues) expressed in mammalian expression system assessed as residual binding level at 10 uM by Kinomescan method relative to control
# Eukaryotic translation initiation factor 2-alpha kinase 1 (Homo sapiens), sequence (Q9BQI3 whole entry, the tested form may be a part): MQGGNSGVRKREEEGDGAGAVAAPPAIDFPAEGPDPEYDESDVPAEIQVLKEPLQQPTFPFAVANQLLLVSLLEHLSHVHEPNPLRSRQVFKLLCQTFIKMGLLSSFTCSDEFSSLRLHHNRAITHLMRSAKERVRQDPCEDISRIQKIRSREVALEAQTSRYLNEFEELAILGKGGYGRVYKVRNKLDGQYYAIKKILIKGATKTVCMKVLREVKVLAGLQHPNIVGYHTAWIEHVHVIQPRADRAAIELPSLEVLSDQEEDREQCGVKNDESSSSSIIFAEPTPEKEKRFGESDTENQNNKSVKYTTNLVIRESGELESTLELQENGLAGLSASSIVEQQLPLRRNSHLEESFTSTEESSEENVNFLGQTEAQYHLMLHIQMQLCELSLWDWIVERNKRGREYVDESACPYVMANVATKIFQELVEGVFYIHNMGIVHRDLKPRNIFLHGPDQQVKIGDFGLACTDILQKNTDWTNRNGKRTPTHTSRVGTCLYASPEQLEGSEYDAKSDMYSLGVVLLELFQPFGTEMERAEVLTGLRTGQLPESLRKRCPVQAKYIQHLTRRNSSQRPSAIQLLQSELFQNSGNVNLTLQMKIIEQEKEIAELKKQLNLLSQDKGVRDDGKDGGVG
# [12] = system: Tyrosine-protein kinase ABL1 (Homo sapiens), P00519 [F317L]; assay: Binding affinity to human non-phosphorylated ABL1 F317L mutant (S229 to K512 residues) expressed in mammalian expression system assessed as residual binding level at 10 uM by Kinomescan method relative to control
# [13] = target: Mitogen-activated protein kinase kinase kinase kinase 3 (Homo sapiens) (UniProt Q8IVH8); assay: Binding affinity to wild-type human partial length MAP4K3 (M1 to D301 residues) expressed in bacterial expression system assessed as residual binding level at 10 uM by Kinomescan method relative to control
# Mitogen-activated protein kinase kinase kinase kinase 3 (Homo sapiens), sequence (Q8IVH8 whole entry, the tested form may be a part): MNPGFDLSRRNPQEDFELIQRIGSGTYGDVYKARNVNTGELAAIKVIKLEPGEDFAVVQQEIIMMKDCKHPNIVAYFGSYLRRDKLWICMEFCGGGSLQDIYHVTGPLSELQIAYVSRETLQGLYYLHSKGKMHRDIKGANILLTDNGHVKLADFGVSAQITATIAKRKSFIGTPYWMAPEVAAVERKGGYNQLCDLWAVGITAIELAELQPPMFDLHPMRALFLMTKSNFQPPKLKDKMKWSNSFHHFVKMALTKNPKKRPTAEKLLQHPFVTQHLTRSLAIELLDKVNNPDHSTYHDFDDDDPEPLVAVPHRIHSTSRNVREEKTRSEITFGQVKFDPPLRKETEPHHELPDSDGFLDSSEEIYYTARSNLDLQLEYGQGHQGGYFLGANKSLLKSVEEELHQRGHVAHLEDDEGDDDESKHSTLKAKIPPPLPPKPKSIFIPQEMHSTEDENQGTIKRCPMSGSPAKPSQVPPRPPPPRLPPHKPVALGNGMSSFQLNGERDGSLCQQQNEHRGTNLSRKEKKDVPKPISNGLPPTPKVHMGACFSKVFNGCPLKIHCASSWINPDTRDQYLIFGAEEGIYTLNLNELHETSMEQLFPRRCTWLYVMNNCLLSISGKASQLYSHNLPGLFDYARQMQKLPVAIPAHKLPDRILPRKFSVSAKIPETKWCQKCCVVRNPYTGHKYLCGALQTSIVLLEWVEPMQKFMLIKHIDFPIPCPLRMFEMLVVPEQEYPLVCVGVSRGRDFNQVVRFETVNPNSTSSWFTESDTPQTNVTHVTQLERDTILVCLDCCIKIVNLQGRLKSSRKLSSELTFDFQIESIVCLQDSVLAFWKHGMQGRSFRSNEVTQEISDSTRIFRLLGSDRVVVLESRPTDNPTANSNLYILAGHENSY
# [14] = system: ALK tyrosine kinase receptor (Homo sapiens), Q9UM73 [C1156Y]; assay: Binding affinity to […] human partial length ALK C1156Y mutant (I1088 to E1409 residues) expressed in mammalian expression system assessed as residual binding level at 10 uM by Kinomescan method relative to control
# ALK tyrosine kinase receptor (Homo sapiens), Q9UM73 [C1156Y], sequence (Q9UM73 whole entry C1156Y, looked up, the tested form may be a part): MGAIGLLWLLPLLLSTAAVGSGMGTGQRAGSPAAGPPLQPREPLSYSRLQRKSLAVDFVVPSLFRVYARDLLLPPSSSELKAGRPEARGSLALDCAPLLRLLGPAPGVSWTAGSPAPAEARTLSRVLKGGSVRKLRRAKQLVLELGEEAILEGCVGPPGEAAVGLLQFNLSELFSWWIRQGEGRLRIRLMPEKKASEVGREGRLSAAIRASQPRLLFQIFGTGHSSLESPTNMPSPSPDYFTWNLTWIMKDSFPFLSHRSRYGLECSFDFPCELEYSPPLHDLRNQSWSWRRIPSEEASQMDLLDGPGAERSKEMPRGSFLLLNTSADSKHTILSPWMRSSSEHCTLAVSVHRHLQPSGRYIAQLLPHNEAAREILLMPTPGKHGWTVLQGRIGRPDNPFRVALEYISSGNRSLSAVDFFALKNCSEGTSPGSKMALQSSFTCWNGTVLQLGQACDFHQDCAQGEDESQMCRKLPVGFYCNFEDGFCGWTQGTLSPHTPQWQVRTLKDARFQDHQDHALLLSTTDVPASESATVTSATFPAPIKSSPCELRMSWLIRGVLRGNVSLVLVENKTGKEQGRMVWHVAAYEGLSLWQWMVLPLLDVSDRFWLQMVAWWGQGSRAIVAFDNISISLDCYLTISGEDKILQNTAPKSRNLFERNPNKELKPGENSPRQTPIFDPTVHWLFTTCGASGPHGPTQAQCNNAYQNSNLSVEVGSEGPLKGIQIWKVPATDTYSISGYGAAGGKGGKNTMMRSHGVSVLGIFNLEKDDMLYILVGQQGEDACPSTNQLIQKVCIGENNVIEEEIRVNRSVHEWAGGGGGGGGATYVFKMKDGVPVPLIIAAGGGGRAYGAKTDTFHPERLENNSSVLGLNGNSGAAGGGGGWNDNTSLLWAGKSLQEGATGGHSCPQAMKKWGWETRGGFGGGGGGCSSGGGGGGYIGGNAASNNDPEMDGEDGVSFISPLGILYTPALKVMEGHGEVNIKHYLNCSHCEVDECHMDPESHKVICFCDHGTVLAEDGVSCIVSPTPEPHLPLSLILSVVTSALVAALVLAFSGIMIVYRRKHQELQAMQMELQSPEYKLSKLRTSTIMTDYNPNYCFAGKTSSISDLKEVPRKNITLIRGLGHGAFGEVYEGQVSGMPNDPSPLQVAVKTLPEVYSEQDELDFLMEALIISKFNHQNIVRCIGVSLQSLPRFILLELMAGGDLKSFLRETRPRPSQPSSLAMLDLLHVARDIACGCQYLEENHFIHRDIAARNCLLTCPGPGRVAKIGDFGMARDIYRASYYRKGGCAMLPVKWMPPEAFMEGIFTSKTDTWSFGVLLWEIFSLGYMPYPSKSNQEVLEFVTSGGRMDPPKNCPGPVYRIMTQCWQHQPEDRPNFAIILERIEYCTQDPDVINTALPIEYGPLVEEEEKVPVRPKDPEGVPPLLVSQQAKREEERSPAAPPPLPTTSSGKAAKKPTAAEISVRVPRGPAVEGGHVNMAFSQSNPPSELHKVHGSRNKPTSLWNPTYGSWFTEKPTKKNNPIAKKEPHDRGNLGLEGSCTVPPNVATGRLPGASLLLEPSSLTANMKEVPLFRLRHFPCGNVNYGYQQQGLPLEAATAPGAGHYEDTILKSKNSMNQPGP
# [15] = target: Serine/threonine-protein kinase/endoribonuclease IRE1 (Homo sapiens) (UniProt O75460); assay: Binding affinity to wild-type human partial length ERN1 (S551 to E852 residues) expressed in mammalian expression system assessed as residual binding level at 10 uM by Kinomescan method relative to control
# [16] = target: Tyrosine-protein kinase Lck (Homo sapiens) (UniProt P06239); assay: Binding affinity to wild-type human partial length LCK (R207 to P509 residues) expressed in bacterial expression system assessed as residual binding level at 10 uM by Kinomescan method relative to control
# [17] = target: Mitogen-activated protein kinase 13 (Homo sapiens) (UniProt O15264); assay: Binding affinity to wild-type human full length p38-delta (M1 to L365 residues) expressed in bacterial expression system assessed as residual binding level at 10 uM by Kinomescan method relative to control
# Mitogen-activated protein kinase 13 (Homo sapiens), sequence (O15264 whole entry, the tested form may be a part): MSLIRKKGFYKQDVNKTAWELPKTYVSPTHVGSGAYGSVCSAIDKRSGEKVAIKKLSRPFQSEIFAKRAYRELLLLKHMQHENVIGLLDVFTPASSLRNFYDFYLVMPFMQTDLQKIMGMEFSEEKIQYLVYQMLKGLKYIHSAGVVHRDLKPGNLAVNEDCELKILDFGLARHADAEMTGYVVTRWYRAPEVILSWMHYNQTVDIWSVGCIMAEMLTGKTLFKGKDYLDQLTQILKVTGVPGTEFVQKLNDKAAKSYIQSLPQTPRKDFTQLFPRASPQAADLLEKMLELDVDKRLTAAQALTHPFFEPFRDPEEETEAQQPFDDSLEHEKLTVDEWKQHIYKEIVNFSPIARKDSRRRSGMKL
# [18] = target: Megakaryocyte-associated tyrosine-protein kinase (Homo sapiens) (UniProt P42679); assay: Binding affinity to wild-type human full length CTK (M43 to P508 residues) expressed in mammalian expression system assessed as residual binding level at 10 uM by Kinomescan method relative to control
# Megakaryocyte-associated tyrosine-protein kinase (Homo sapiens), sequence (P42679 whole entry, the tested form may be a part): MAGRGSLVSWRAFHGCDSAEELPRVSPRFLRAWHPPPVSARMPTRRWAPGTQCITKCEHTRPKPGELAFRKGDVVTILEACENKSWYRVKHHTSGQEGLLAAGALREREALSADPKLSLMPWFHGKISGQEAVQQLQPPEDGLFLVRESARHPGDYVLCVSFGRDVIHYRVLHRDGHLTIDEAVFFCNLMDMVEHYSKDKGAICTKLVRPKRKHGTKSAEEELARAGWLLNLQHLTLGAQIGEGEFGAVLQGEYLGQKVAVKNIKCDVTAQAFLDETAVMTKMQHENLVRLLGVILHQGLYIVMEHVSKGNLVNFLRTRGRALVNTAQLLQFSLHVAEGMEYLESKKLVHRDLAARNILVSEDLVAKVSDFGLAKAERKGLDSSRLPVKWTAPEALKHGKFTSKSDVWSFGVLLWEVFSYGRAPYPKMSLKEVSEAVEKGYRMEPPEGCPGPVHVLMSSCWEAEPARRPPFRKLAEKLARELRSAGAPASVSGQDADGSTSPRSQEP
# [19] = system: Mast/stem cell growth factor receptor Kit (Homo sapiens), P10721 [V559D,T670I]; assay: Binding affinity to human partial length KIT V559D/T670I double mutant (Y545 to D952 residues) expressed in bacterial expression system assessed as residual binding level at 10 uM by Kinomescan method relative to control
# [20] = target: Serine/threonine-protein kinase MRCK alpha (Homo sapiens) (UniProt Q5VT25); assay: Binding affinity to wild-type human partial length MRCKA (L57 to V418 residues) expressed in bacterial expression system assessed as residual binding level at 10 uM by Kinomescan method relative to control
# [21] = target: Serine/threonine-protein kinase Sgk2 (Homo sapiens) (UniProt Q9HBY8); assay: Binding affinity to wild-type human partial length SGK2 (L54 to C427 residues) expressed in mammalian expression system assessed as residual binding level at 10 uM by Kinomescan method relative to control
# Serine/threonine-protein kinase Sgk2 (Homo sapiens), sequence (Q9HBY8 whole entry, the tested form may be a part): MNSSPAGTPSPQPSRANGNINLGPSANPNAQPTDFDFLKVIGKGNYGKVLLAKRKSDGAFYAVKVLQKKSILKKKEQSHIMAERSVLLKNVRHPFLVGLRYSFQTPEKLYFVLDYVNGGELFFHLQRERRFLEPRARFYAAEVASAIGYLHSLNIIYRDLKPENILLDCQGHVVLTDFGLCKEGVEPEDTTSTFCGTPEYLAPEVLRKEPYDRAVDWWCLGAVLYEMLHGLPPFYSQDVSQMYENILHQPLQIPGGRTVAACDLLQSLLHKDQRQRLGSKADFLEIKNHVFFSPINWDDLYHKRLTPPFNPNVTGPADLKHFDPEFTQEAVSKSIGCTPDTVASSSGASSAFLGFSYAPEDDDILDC
# [22] = target: Death-associated protein kinase 3 (Homo sapiens) (UniProt O43293); assay: Binding affinity to wild-type human partial length DAPK3 (M1 to A277 residues) expressed in bacterial expression system assessed as residual binding level at 10 uM by Kinomescan method relative to control
smiles,measurement,setting,value
CC(C)N1C(=O)C(NCCCN(C)C)=C(c2cn(C)c3ccccc23)C1=O.Cl,Activity,[1],88%
same,Activity,[2],100%
same,Activity,[3],82%
same,Activity,[4],100%
same,Activity,[5],100%
same,Activity,[6],100%
same,Activity,[7],100%
same,Activity,[8],78%
same,Activity,[9],91%
same,Activity,Jurkat,inactive
same,inhibition,Neutrophil,inactive
same,Activity,[10],100%
same,Activity,[11],82%
same,Activity,[12],84%
same,Activity,[13],96%
same,Activity,[14],90%
same,Activity,[15],85%
same,Activity,[16],92%
same,Activity,[17],100%
same,Activity,[18],83%
same,Activity,[19],100%
same,Activity,[20],98%
same,Activity,[21],82%
same,Activity,[22],98%
